In this test the target is Protein phosphatase 1 catalytic subunit (PPP1CA). Nature of the test: Inhibitory concentration against protein phosphatase 1 (PP1) was determined.

The term IC50 denotes the midpoint of a concentration-inhibition curve.

The molecule `O=C(O)[C@@H](Cc1ccccc1)N1C(=O)[C@@H]2[C@H](C1=O)[C@H]1CC[C@@H]2O1` [(R)-2-((1S,2R,6S,7R)-3,5-Dioxo-10-oxa-4-aza-tricyclo[5.2.1.0*2,6*]dec-4-yl)-3-phenyl-propionic acid] came in with an IC50 above 1000 µM. Then `CC(C)C[C@H](C(=O)O)N1C(=O)[C@@H]2[C@H](C1=O)[C@H]1CC[C@@H]2O1` [(R)-2-((1S,2R,6S,7R)-3,5-Dioxo-10-oxa-4-aza-tricyclo[5.2.1.0*2,6*]dec-4-yl)-4-methyl-pentanoic acid], with above 1000 µM; and `O=C(O)CC[C@H](C(=O)O)N1C(=O)[C@@H]2[C@H](C1=O)[C@H]1CC[C@@H]2O1` [(R)-2-((1S,2R,6S,7R)-3,5-Dioxo-10-oxa-4-aza-tricyclo[5.2.1.0*2,6*]dec-4-yl)-pentanedioic acid], with 95 µM. Then `O=C(O)[C@H](Cc1ccccc1)N1C(=O)[C@@H]2[C@H](C1=O)[C@H]1CC[C@@H]2O1` [(S)-2-((1S,2R,6S,7R)-3,5-Dioxo-10-oxa-4-aza-tricyclo[5.2.1.0*2,6*]dec-4-yl)-3-phenyl-propionic acid], with above 1000 µM. Then `CC(C)C[C@@H](C(=O)O)N1C(=O)[C@@H]2[C@H](C1=O)[C@H]1CC[C@@H]2O1` [(S)-2-((1S,2R,6S,7R)-3,5-Dioxo-10-oxa-4-aza-tricyclo[5.2.1.0*2,6*]dec-4-yl)-4-methyl-pentanoic acid], with above 1000 µM.

Values taken from BindingDB's records for doi:10.1016/s0960-894x(01)00594-7 (The University of Newcastle, 2001).
